The results in this text go back to patent publication US5200409A, “Composition and use of substituted 1,3-dithiolo-and 1,4-dithiinoquinoxalines as an antimicrobial” (The Dow Chemical Company, priority 1992, dated 1993).

Test [1] concerns Staphylococcus aureus (Sa). Description: Minimum inhibitory concentration (MIC) in nutrient agar. The format is cell-based, Staphylococcus aureus ATCC 6538. An outline of the steps:
(§1)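 Agar-dilution MIC in nutrient agar at pH 6.8 and pH 8.2 (tricine buffer), containing test compound at 0–500 ppm. Plates were inoculated by replicator with 10^8 CFU/ml suspensions of 24-h cultures and incubated 48 h at 30° C. Growth or no growth defines the MIC.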

The subject of a further test is Proteus vulgaris (Pv). The test is described as above. It counts as cell-based, Proteus vulgaris ATCC 881. Particulars: 48 h. An outline of the steps: as §1
In another test the test system is Trichoderma viride (Tv). The test is described as follows: Minimum inhibitory concentration (MIC) in malt yeast agar. The format is cell-based, Trichoderma viride ATCC 8678. Particulars: malt yeast agar; 30° C.; 72 hours for fungi; read-out: Minimum Inhibitory Concentration, Tv. An outline of the steps: (§2)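 Compound dispersed in malt yeast agar at final 500, 250, 100, 50, 25, 10, 5, 2.5, 1.0 and 0 ppm (from 1% acetone/water solution); plates dried 24 h, then inoculated with saline/octylphenoxy polyethoxy ethanol suspensions of 7-day cultures diluted 1:9. Incubated at 30° C; read at 48 h for yeast, 72 h for fungi.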

A further test deals with Aspergillus niger (An). The test is described as above. It counts as cell-based, Aspergillus niger ATCC 16404. Particulars: malt yeast agar; 30° C.; 72 hours for fungi; read-out: Minimum Inhibitory Concentration, An. An outline of the steps:
as §2

The subject of another test is Escherichia coli (Ec). The test is described as follows: Minimum inhibitory concentration (MIC) in nutrient agar. It counts as cell-based, Escherichia coli ATCC 11229. Particulars: 48 h. The method in brief:
as §1

Test [2] deals with Pseudomonas aeruginosa (Pa). The test is described as above. It counts as cell-based, Pseudomonas aeruginosa ATCC 10145. Particulars: 48 hours. The method in brief: as §1
Test [3] concerns Penicillium chrysogenum (Pc). Description: Minimum inhibitory concentration (MIC) in malt yeast agar. As to conditions: malt yeast agar; 30° C.; 72 hours for fungi; read-out: Minimum Inhibitory Concentration, Pc. It counts as cell-based, Penicillium chrysogenum ATCC 9480. An outline of the steps: as §2
The subject of test [4] is Aureobasidium pullulan (Ap). The test is described as above. It counts as cell-based, Aureobasidium pullulan ATCC 16622. Particulars: malt yeast agar; 30° C.; 48 hours for yeast and 72 hours for fungi; read-out: Minimum Inhibitory Concentration, Ap. An outline of the steps: as §2
In test [5] the test system is Pseudomonas aeruginosa (PRD-10). Description: Minimum inhibitory concentration (MIC) in nutrient agar. As to conditions: 48 h. The format is cell-based, Pseudomonas aeruginosa ATCC 15442. An outline of the steps:
as §1

For test [6], the system named is Enterobacter aerogenes (Ea). The description is as above. It counts as cell-based, Enterobacter aerogenes ATCC 13048. Particulars: Klebsiella aerogenes, 48 h. The method in brief:
as §1

The test system of test [7] is Salmonella choleraesuis (Sc). The description is as above. The format is cell-based, Salmonella choleraesuis ATCC 10708. Particulars: Salmonella enterica, 48 h. The method in brief: as §1
Test [8] relates to Klebsiella pneumoniae (Kp). The test is described as above. The format is cell-based, Klebsiella pneumoniae ATCC 8308. An outline of the steps:
as §1

The next test concerns Fusarium oxysporum (Fo). The test is described as follows: Minimum inhibitory concentration (MIC) in malt yeast agar. As to conditions: malt yeast agar; 30° C.; 72 hours for fungi; read-out: Minimum Inhibitory Concentration, Fo. It counts as cell-based, Fusarium oxysporum ATCC 48112. The method in brief:
as §2

Values after ≈ are worked out from the molar mass of the structure shown. Where two headings read alike, the source gives them in different places.

Turning to `N#CC(C#N)=C1Sc2nc3ccc(Cl)cc3nc2S1` [O, 6-chloro-1,3-dithiolo-(4,5-b)-quinoxaline-2-ylidene-propanedinitrile], the MIC was above 500 µg/mL in test [1] (48 h, pH 8.2, read-out: Minimum Inhibitory Concentration, Sa); above 500 µg/mL in test [1] (pH 6.8, nutrient agar, 30° C., 48 hours, read-out: Minimum Inhibitory Concentration, Sa); above 500 µg/mL with Proteus vulgaris (Pv) (pH 6.8, read-out: Minimum Inhibitory Concentration, Pv); above 500 µg/mL in the test with Proteus vulgaris (Pv) (pH 8.2, read-out: Minimum Inhibitory Concentration, Pv); above 500 µg/mL in the test with Trichoderma viride (Tv); 500 µg/mL (≈ 1650 µM) in the test with Aspergillus niger (An). Further, the MIC is above 500 µg/mL in the test on Escherichia coli (Ec) (pH 6.8, read-out: Minimum Inhibitory Concentration, Ec); above 500 µg/mL with Escherichia coli (Ec) (pH 8.2, read-out: Minimum Inhibitory Concentration, Ec); above 500 µg/mL in test [2] (pH 6.8, 30° C.); above 500 µg/mL in test [2] (pH 8.2, 30° C.); 500 µg/mL (≈ 1650 µM) in test [3]; 500 µg/mL (≈ 1650 µM) in test [4]. Besides, the MIC in test [5] (pH 6.8, read-out: Minimum Inhibitory Concentration, PRD) is above 500 µg/mL; in test [5] (pH 8.2, read-out: Minimum Inhibitory Concentration, PRD) it was above 500 µg/mL; in [6] (pH 6.8, read-out: Minimum Inhibitory Concentration, Ea), above 500 µg/mL; in [6] (pH 8.2, read-out: Minimum Inhibitory Concentration, Ea), above 500 µg/mL; in test [7] (pH 6.8, read-out: Minimum Inhibitory Concentration, Sc) it was above 500 µg/mL; in [7] (pH 8.2, read-out: Minimum Inhibitory Concentration, Sc), above 500 µg/mL. Also, the MIC in test [8] (48 h, pH 8.2, read-out: Minimum Inhibitory Concentration, Kp) was above 500 µg/mL; in test [8] (pH 6.8, nutrient agar, 30° C., 48 hours, read-out: Minimum Inhibitory Concentration, Kp), above 500 µg/mL; in the test on Fusarium oxysporum (Fo), above 500 µg/mL.
